Source: paper PMC12216609, “Inhibitors of eIF1A-ribosome interaction unveil uORF-dependent regulation of translation initiation and antitumor and antiviral effects” (The EMBO Journal, 2025)
Where “and” joins values, the source holds several entries; their conditions need not be identical. Equal entries are not always repeated.

Assays:
[1] = system: cap-proximal AUG GFP reporter in HEK293T cells; format: cell-based; conditions: GFP WB densitometry; 20 µM overnight; dmso 0.965946
Text: Translation from an AUG preceded by a very short 5'UTR (less than 30 nt) is usually inefficient and frequently bypassed, resulting in initiation from a downstream AUG, a phenomenon known as leaky scanning. […] To examine the impact of 1Ais on short 5'UTR initiation, we used a GFP reporter gene containing an AUG located 16 nt downstream from the 5' end followed by a second in-frame downstream AUG (Fig. 1F; Appendix Fig. S1B). Cells were transfected with this GFP reporter gene followed by exposure to DMSO (vehicle) and 1Ais. Initiations from upstream (US) or downstream (DS) AUGs were determined by western blot (WB) with anti-GFP antibodies and the ratio between the US and DS AUG was determined.
For the analysis of translation from very short 5'UTR and Leaky scanning, HEK293T cells were transfected with a GFP (20 ng/well) reporter gene driven by a cap-proximal and downstream AUGs (Elfakess et al, [2011]) together with a luciferase reporter gene (100 ng/well) as normalizing control and treated with 20 µM of 1Ais as described above. GFP levels were determined by Western blot (WB) (GFP antibody, Abcam #ab290) and quantified by densitometry (ImageJ) and normalized to the measured luciferase activity.
HEK293T cells were transfected with the GFP reporter gene schematically shown on the top. The first
AUG is […] from the 5’ end and the downstream AUG is in the same frame. Six hours after transfection, cells were treated with 1Ais. After overnight exposure to 1Ais, GFP expression was analyzed by WB using anti -GFP antibodies.
US/DS ratio was determined by densitometry and represents the long protein expression (upstream AUG, US) vs the […]
biological replicates. (C-D) Analysis of reporter genes mRNA levels after 1Ais treatment.

[2] = system: IRF7 5'UTR firefly luciferase reporter in HEK293T cells; conditions: for Reference vs IRF7 (Final data, Fig. 1E): 1/Result, relative to DMSO; for LONG (summary - All), normalized to DMSO / SHORT (summary - All), normalized to DMSO: individual replicates, outliers excluded, DMSO = 1; for average ( long vs short ratio): summary - All;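 for all read-outs here: luciferase signal corrected by a co-transfected GFP reporter for transfection efficiency, read after overnight compound exposure, with Long and Short reporters differing in 5'UTR length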
Experimental: For the effect on ribosomal scanning, we used two firefly luciferase reporter genes that differ in their 5'UTR length (Fig. 1C). […] Cells were transfected with these reporters along with a GFP reporter gene used to normalize transfection efficiency. After an overnight 1Ai or DMSO (vehicle control) exposure, luciferase and GFP expression were measured, and normalized activity was determined.
For the reference vs IRF7 5'UTR luciferase reporter assay, HEK239T cells in a 12-well plate were transfected with the previously described IRF7 5'UTR or reference firefly luciferase reported genes (Sehrawat et al, [2019]) (100 ng/well) together with GFP (20 ng/well) that served as an internal control by CaCl2 transfection. After 6 h, half of the growth medium was replaced with a medium containing the different compounds, reaching a final concentration of 20 µM. Twenty-four hours after transfection, transfection efficiency was evaluated using GFP fluorescence intensity (Cytation 5, ex/em: 470/525). Cells were harvested in 50 µL Reported lysis buffer (RLB) and put on a shaker for 10 min. From each well 5 µL were taken in duplicates and tested by luminometer.

NSP1 = NSP1 (Severe acute respiratory syndrome coronavirus 2, UniProt P0DTD1)

C=CCNC(=O)CN1CCN(Cc2nc3cc(-c4ccc(Cl)cc4)sc3c(=O)[nH]2)CC1 [1Ai-1524]
US/DS ratio, average [1]: 0.7201
Reference vs IRF7 (Final data, Fig. 1E) ([2]; 20 µM): 1.878
LONG (summary - All), normalized to DMSO ([2]; Long reporter, 20 µM): 0.62 and 0.21 and 0.43 and 0.52
SHORT (summary - All), normalized to DMSO ([2]; Short reporter, 20 µM): 0.50 and 0.66 and 0.41
average ( long vs short ratio) ([2]; 20 µM): 0.848

Cn1c(=O)c2ccccc2n2c(CNC(c3ccc4c(c3)CCC4)c3cccs3)nnc12 (centres unmarked) [1Ai-7688]
GFP reporter ratio nsp1/gfp, avg (NSP1): 0.4413
GFP reporter ratio nsp1/gfp, rep 1 (NSP1): 0.4413
gfp signal, mean of duplicate wells (NSP1): 1907
nsp1 signal, mean of duplicate wells (NSP1): 841.5
ratio (nsp1/gfp) (NSP1): 0.441
US/DS ratio, average [1]: 0.7504
Reference vs IRF7 (Final data, Fig. 1E) ([2]; 20 µM): 1.509
LONG (summary - All), normalized to DMSO ([2]; Long reporter, 20 µM): 0.23 and 0.0442 and 0.78 and 0.63 and 1.12 and 0.61
SHORT (summary - All), normalized to DMSO ([2]; Short reporter, 20 µM): 0.19 and 0.05 and 1.25 and 0.79 and 1.33 and 1.55
Long 5'UTR reporter luciferase activity, normalized to DMSO (=1), single replicates ([2]; compound at 20 µM, left data block (Long), source data of Fig 1C): 0.2324 and 0.04416 and 0.7839 and 0.6346 and 1.115 and 0.6102
average ( long vs short ratio) ([2]; 20 µM): 0.663

CCOC(=O)c1ccsc1NC(=O)CN1C(=O)NC(C)(c2cccc3ccccc23)C1=O (centres unmarked) [1Ai-1861]
GFP reporter ratio nsp1/gfp, avg (NSP1): 0.5997
GFP reporter ratio nsp1/gfp, rep 1 (NSP1): 0.5997
gfp signal, mean of duplicate wells (NSP1): 311
nsp1 signal, mean of duplicate wells (NSP1): 186.5
ratio (nsp1/gfp) (NSP1): 0.600
US/DS ratio, average [1]: 0.86
Reference vs IRF7 (Final data, Fig. 1E) ([2]; 20 µM): 1.411
LONG (summary - All), normalized to DMSO ([2]; Long reporter, 20 µM): 0.0542 and 0.33 and 0.67 and 0.24
SHORT (summary - All), normalized to DMSO ([2]; Short reporter, 20 µM): 0.28 and 0.35 and 0.52 and 0.68
average ( long vs short ratio) ([2]; 20 µM): 0.709

O=C(CSc1nc(-c2ccccc2)cn1-c1ccccc1)NC(=O)Nc1ccccc1 [1Ai-2383]
GFP reporter ratio nsp1/gfp, avg (NSP1): 0.4187
GFP reporter ratio nsp1/gfp, rep 1 (NSP1): 0.4187
gfp signal, mean of duplicate wells (NSP1): 2499.5
nsp1 signal, mean of duplicate wells (NSP1): 1046.5
ratio (nsp1/gfp) (NSP1): 0.419
US/DS ratio, average [1]: 0.4898
Reference vs IRF7 (Final data, Fig. 1E) ([2]; 20 µM): 1.265
LONG (summary - All), normalized to DMSO ([2]; Long reporter, 20 µM): 0.91 and 0.57 and 0.60
SHORT (summary - All), normalized to DMSO ([2]; Short reporter, 20 µM): 0.93 and 0.86 and 0.76
Long: Normalized to average DMSO ([2]; data section, Long reporter, GFP-corrected, 20 µM, per experiment, includes values excluded as outliers): 0.9138 and 0.5713 and 0.6011 and 0.6048
Short: Normalized to average DMSO ([2]; data section, Short reporter, GFP-corrected, 20 µM, per experiment, includes values excluded as outliers): 0.9324 and 0.8573 and 0.5797 and 0.7642
average ( long vs short ratio) ([2]; 20 µM): 0.790
